US12448352B2, “Beta adrenergic agonist and methods of using the same” (Curasen Therapeutics, Inc., priority 2019, dated 2025)

Assays:
[1] = Mouse pharmacokinetic study (plasma); assay type: in vivo, male C57BL/6J mice; details: PO 5 mg/kg
Procedure: The rat pharmacokinetics studies of exemplary compounds 03-3, 03-5, and 03-115 were conducted with male SD rats. These rats were typically about 6-8 weeks old, weighing 200 g to 300 g. Animals were fasted overnight and free access to food 4 hours after dosing. A required volume of vehicle was added to reach the target concentration of the test article and vehicle component to prepare for the dosing. The dosing vehicle was PEG400 or 30% PEG400 in saline for IV, or 0.5% methylcellulose in water for PO. For IV dosing, the animals were administered intravenously via tail vein. For PO dosing, the animals were administered via oral gavage. After dosing, blood sample was collected (˜0.2 mL per time point) through jugular vein or heart puncture. Blood of each sample was transferred into plastic micro centrifuge tubes containing EDTA-K2. Collection tubes with blood samples and anticoagulant were inverted several times for proper mixing of the tube contents and then placed on wet ice. The blood samples were centrifuged at 2000 g for 5 minutes at 4° C. to obtain plasma which was stored in a freezer at −75±15° C. prior to analysis. Samples were analyzed using LC-MS/MS. WinNonlin were used for pharmacokinetic calculations.
Mouse pharmacokinetics studies of exemplar compounds 03-3 and 03-5 were conducted substantially similarly to the rat pharmacokinetic studies, instead using male C57BL/6J mice. These mice were typically about 6-8 weeks old, weighing 20 g to 30 g. Animals were free access to food before dosing. Sample amount was ˜0.03 mL per time point and sample site was dorsal metatarsal or heart puncture.

[2] = Plasma protein binding, equilibrium dialysis (rat); assay type: in vitro ADME; details: 1 μM, 6 hours dialysis
Procedure: (§1) Preparation of 100 mM sodium phosphate and 150 mM NaCl buffer (PBS). A basic solution was prepared by dissolving 14.2 g/L Na2HPO4 and 8.77 g/L NaCl in deionized water and the solution could be stored at 4° C. for up to 7 days. An acidic solution was prepared by dissolving 12.0 g/L NaH2PO4 and 8.77 g/L NaCl in deionized water and the solution could be stored at 4° C. for up to 7 days. The basic solution was titrated with the acidic solution to pH 7.4 and store at 4° C. for up to 7 days. pH was checked on the day of experiment and was adjusted if outside specification of 7.4±0.1.
(§2) Thawing of the frozen plasma (stored at −80° C.). Frozen plasma was thawed immediately at room temperature. The plasma was centrifuged at 3,220 g for 10 minutes to remove clots and supernatant was collected into a fresh tube. The pH of the plasma was checked and recorded. Note: a). Only use plasma that has been thawed no more than twice since arrival. b). Only use plasma within the range of pH 7 to pH 8.
(§3) Preparation of working solutions. The working solutions of test compound and control compound ketoconazole were prepared in DMSO at the concentration of 200 μM. And then 3 μL of working solutions was removed to mix with 597 μL of rat plasma to achieve a final concentration of 1 μM (0.5% DMSO). Plasma samples were vortexed thoroughly.
(§4) Preparation of dialysis membranes. […]

[3] = Plasma protein binding, equilibrium dialysis (human); assay type: in vitro ADME
Procedure: as §1, §2, §3, §4

In the case of `Cc1ncccc1[C@@H](O)CNC(C)(C)C` [Compound 03-115], the AUCInf [1] is reported as 3018 ng·h/mL, the Cmax [1] is reported as 1751 ng/mL and the MRTInf_obs [1] is reported as 1.8 h. For the same compound, the Tmax [1] was 0.5 h, the “PPB (rat), Percent of Unbound Fractions” value [2] was 97% and the “PPB (human), Percent of Unbound Fractions” value [3] was 100%.
